Values belong to the compound of their own block, whether it stands above or below them. Residues, ends and D or L forms follow the SMILES beside them. *: point of attachment. 5FAM = O=C1OC2(c3ccc(O)cc3Oc3cc(O)ccc32)c2ccc(C(=O)*)cc21
How the values were obtained:
sciatic nerves [1] = assay: Dose response of peptide binding (nerve to muscle contrast ratio); type: in vivo, mice; conditions: 5,000 nmoles, at 2 hours
Method: To determine the dose response of peptide binding, the nerve to muscle contrast ratio was measured as a function of the amount of peptide administered (FIG. 4D).
Female 8 week-old SKH1 mice (average weight 25 g) were treated with varying amounts of SEQ ID NO:25 ranging from […]. After a 2 hour washout period, mice were sacrificed and sciatic nerves exposed. Nerves and adjacent non-nerve tissue were delineated with Image 3 and relative fluorescence was measured. Quantification of fluorescence was then performed following subtraction of dark current and normalizing to a standard. For the mice injected with 5,000 nmoles of SEQ ID NO:4, it was noted that background fluorescence was still very high at 2 hours, making the contrast ratio low even though the absolute nerve fluorescence was high. For these mice, the skin incisions were repaired and the mice were allowed to awaken from anesthesia, then at 6 hours following initial SEQ ID NO:4 administration, the mice were sacrificed and the sciatic nerves exposed and analyzed as above.

sciatic nerve [2] = assay: Histology: localization of binding in nerves of thy1-YFP transgenic mice; type: in vivo; conditions: mouse, in vivo
Excerpt: To evaluate the localization of SEQ ID NO:4 binding in nerves, we treated thy1-YFP transgenic mice whose axons are genetically encoded with YFP under a neuron specific promoter (Feng et al, Imaging neuronal subsets in transgenic mice expressing multiple spectral variants of GFP. Neuron, 2000) with SEQ ID NO:31. […] These deeper nerve structures were not easily seen either with brightfield (FIG. 5A, insert) or YFP (FIG. 5B, insert) imaging. To evaluate the localization of SEQ ID NO:4 binding on a cellular level, we imaged cryosections (3-5 μm) of nerves and attached muscles from thy1-YFP animals treated with SEQ ID NO:31.

dissected nerve tissue = assay: In vitro nerve binding: dissected nerve tissue incubated with peptide; design: species or system mice; conditions: 100 nM peptide, one hour incubation
[3] = Peptide biodistribution and metabolism (organ fluorescence, LC-MS and MALDI of urine); type: in vivo, mice
Method: (§1) To evaluate the biodistribution of the peptide following systemic administration, organs were harvested from mice treated with SEQ ID NO:4 and fluorescence uptake was evaluated. […] To evaluate the metabolism of the peptide as it passed through the renal system, liquid chromatography-mass spectrometry (LC-MS, Agilent) tracing was used to compare urine obtained from mice injected with SEQ ID NO:25 or SEQ ID NO:31 intravenously versus urine from normal mice spiked with the native SEQ ID NO:25 or SEQ ID NO:31. […] Next, matrix-assisted. laser desorption/ionization (MALDI) was used to evaluate the nature of the modification to the peptide as it was metabolized.
as §1, with “NO:25 and” for “NO:25 or”, “ID NO:3” for “ID NO:31”, “ID NO:25.” for “ID NO:25 or SEQ ID NO:31.”, “Next, matrix-assisted” for “Next, matrix-assisted.”

sciatic nerve [4] = assay: Effect of nerve injury (crush, devascularization) on labeling; type: in vivo, mice
Method: The ability of peptides to label peripheral nerves following nerve crush injury was evaluated in mice using SEQ ID NO:25. […] (Occasionally, nerve labeling immediately at the site of injury was slightly diminished compared to nerve labeling several centimeters away from the site of injury (FIG. 6D), but this observation was highly variable (FIGS. 6B,F) and not statistically significant (FIG. 6I)).
Wild type mice were anesthetized and the left sciatic nerve exposed and crushed with microforceps for 3-5 seconds. Muscular contractions during the crush after immediately afterwards were monitored to ensure uniformity of the injury. The skin incision was then closed and mice returned to their cages to recover. At varying times after crush injury, intravenous SEQ ID NO:25 (150 nmoles) was administered. Two to three hours after intravenous SEQ ID NO:25 treatment, the mice were anesthetized, bilateral sciatic nerves exposed and quantitative fluorescence microscopy was used to measure nerve fluorescence. Nerve and adjacent muscle fluorescence were measured using Image J software by measuring standardized boxed regions. Crushed and contralateral control nerve fluorescence were compared for each animal.

sciatic nerve conduction = conditions: mouse, in vivo
Method: Maximal compound muscle action potential amplitude (CMAP) and nerve conduction latency were measured as described in Osuchowski et al, Noninvasive model of sciatic nerve conduction in healthy and septic mice: reliability and normative data, Muscle Nerve, 2009), Briefly, control female 8 week-old SKH1 mice and mice treated with SEQ ID NO:25 were anesthetized with ketamine-midazolam and placed in a prone position. CMAP potentials were evoked (Grass stimulator) with stimulating electrode (Medtronics) placed 2 mm lateral to the midline. The recording electrode was an ear-clip electrode (Life-tech.com) placed on the digits of the hind foot and the reference electrode was placed on the heel of the foot. Maximal CMAPs were generated by gradually increasing the stimulation (5-10V, 1 pulse per second, paired, 0.5-2 sec duration) until a maximal, artifact free tracing was obtained. The CMAP traces were captured on a digital oscilloscope (Tektronic). Nerve conduction latency was measured from the beginning of the stimulation to the start of the upslope. CMAP amplitude was measured from the start of the upslope to the peak.

[5] = Generalized toxicity: activity, behavior and weight gain; type: in vivo, mice; conditions: single intravenous injection of 15-5,000 nmoles, up to 8 weeks of monitoring
Method: To evaluate generalized toxicity following peptide administration, the generalized activity, behavior and weight gain of mice after a single intravenous injection of 15-5,000 nmoles of SEQ ID NO:25 was studied.
Female 8 week-old SKH1 mice (average weight 25 g) were treated with varying amounts of SEQ ID NO:25 ranging from 15-5,000 nmoles. Generalized activity, behavior and weight gain were evaluated following single intravenous injection of 15-5,000 nmoles of […] on a daily basis for 3 clays following injection. Thereafter, the mice were monitored three times per week for 8 weeks.

sciatic nerves [6] = assay: In vivo nerve labeling with fluorescently labeled peptides (nerve versus adjacent non-nerve tissue); design: species or system mice; conditions: for nerve to muscle contrast: FAM-labeled peptides intravenously
Method: To test the nerve binding affinity of each of the isolated peptide sequences in vivo, carboxyfluorescein (FAM)-labeled peptides were injected intravenously into living mice. Following a wash-out period, the contrast between nerve and muscle binding of the labeled peptides was evaluated.
Wild-type albino C57BL6 (Jackson Laboratory) or SKH1 (Charles River Laboratories) mice were treated intravenously with 150 nmoles of fluorescently labeled SEQ ID NO:4 via tail vein injection. Following a 2-3 hour wash-out period for SEQ ID NO:25 or 5-6 hours for SEQ ID NO:31, mice were anesthetized with ketamine and midazolam (80 mg/kg intraperitoneally), a skin incision was made over the dorsal surface of the hind, legs and the sciatic nerves exposed bilaterally. […] Nerves and adjacent non-nerve tissue was delineated with Image J and relative fluorescence was measured. Following background subtraction using dark current measurements and measurements of a standard, the ratios of peptide binding to nerve versus adjacent non-nerve tissue were calculated.

sciatic nerves [7] = assay: as above; design: species or system mice
MBP = system: MBP
Method: To test the nerve binding affinity of each of the isolated peptide sequences in vitro, dissected nerve tissue was removed from mice and incubated for one hour with 100 nM of each peptide, including a control peptide made up of amino acids that were contained within the various phages selected and sequenced, but in a mixed-up order and designed without repeating any single amino acid except for glycine (which was added to the C-terminus as a flexible linker).

[8] = system: human recurrent laryngeal nerve; assay: Human nerve labeling: resected recurrent laryngeal nerves and adjacent muscle incubated with peptide; type: binding
Method: To evaluate whether or not SEQ ID NO:25 could selectively bind human nerves as compared to non-nerve tissue, freshly resected recurrent laryngeal nerves and adjacent muscle obtained from patients undergoing total laryngectomy for laryngeal cancer were incubated with SEQ ID NO:25. […] This binding pattern is similar to the binding pattern observed in mice.
To evaluate whether or not SEQ ID NO:25 could selectively bind human nerves as compared to non-nerve tissue, freshly resected recurrent laryngeal nerves and adjacent muscle obtained from patients undergoing total laryngectomy for laryngeal cancer were incubated with SEQ ID NO:25 at […] for 15 minutes and washed in saline for 15 minutes each. The nerve and muscle segments were then placed on a black non-fluorescent plate and imaged (Maestro, CRI). The nerve segments were then embedded in Tissue-Tek®, frozen and cryosectioned. 7-10 μm cryosections were then. imaged with standard fluorescence microscopy. Adjacent sections were stained with hematoxylin and eosin (H&E) and imaged.

[9] = system: sciatic nerves and surrounding non-nerve tissue; type: in vivo, mice
Excerpt: To evaluate the time course of peptide binding to nerve tissue, sciatic nerves and surrounding non-nerve tissue in living mice were imaged before and after intravenous administration of SEQ ID NO:25, Prior to administration of SEQ ID NO: 25 (FIG. 3A), there was little contrast of the nerve (arrowheads) in relation to surrounding non-nerve tissue. Within seconds following intravenous administration of SEQ ID NO:25 (FIG. 3B), the fluorescent injectate could be seen leaking from capillaries (arrows), including capillaries associated with the sciatic nerves (insert). […] Useful contrast between nerve and surrounding muscle begins to develop by 2-3 hours after intravenous injection (FIG. 3E) and lasts several hours (FIG. 3F). […] Serum half-life was calculated at ˜10 minutes.
Female 8 week-old SKH1 mice were anesthetized with ketamine and midazolam and a skin incision was made over the dorsal surface of the hind legs and the sciatic nerves exposed. A preinjection image was taken a dissecting microscope (Lumar Zeiss) and a monochrome camera (Coolsnap). The mice were treated intravenously with […] of SEQ ID NO:25 via, tail vein injection. Sequential fluorescence imaging was then performed as described above: excitation 470/40 nm, emission 525/50 nm, exposure 15 milliseconds-5 seconds. Nerves and adjacent non-nerve tissue were delineated with Image J and relative fluorescence was measured. Quantification of fluorescence was then performed following subtraction of dark current and normalizing to a standard.

- nerve to muscle contrast ratio (sciatic nerves [1]): low
- colocalization of labeling with myelin or axons (sciatic nerve [2]): does not appear to colocalize
- colocalization of labeling with myelin or axons (sciatic nerve [2]; listed as SEQ ID NO: 4): does not colocalize
Compound: NTQTLAKAPEHT (peptide that specifically binds to a neuron, nerve, or component of either) [SEQ ID NO:4]
- uptake/binding to dissected nerve tissue compared to no peptide or control peptide (dissected nerve tissue): two-fold increase over control to no difference from control
- biodistribution following systemic administration (organ fluorescence uptake) ([3]; mouse, in vivo): accumulated in the kidney and was excreted into the urine
- nerve labeling after injury (sciatic nerve [4]; 3 days following injury): diminished
- nerve labeling compared to contralateral control nerve (sciatic nerve [4]; 7 days after crush injury): recovers
- nerve fluorescence as a function of distance from crush site (sciatic nerve [4]; mouse, in vivo): does not significantly diminish
- shape of the CMAP curve versus control animals (sciatic nerve conduction): similar
- generalized activity, behavior and weight gain versus uninjected/control mice [5]: similar
- nerve fluorescence relative to adjacent non-neural tissue (sciatic nerves [6]; FAM-labeled peptide intravenously, living mice, exposed sciatic nerves, after wash-out): 4 fold
- nerve to muscle contrast (sciatic nerves [6]; living mice, after wash-out): best nerve to non-nerve contrast
- labeling of nerves in the central nervous system (CNS) (sciatic nerves [7]; mouse, in vivo): no evidence of labeling

Compound: TYTDWLNFWAWP (peptide that specifically binds to a neuron, nerve, or component of either) [SEQ ID NO:2]
- uptake/binding to dissected nerve tissue compared to no peptide or control peptide (dissected nerve tissue): little increase
- increase in binding to MBP crosslinked beads compared to control beads (with no MBP) (MBP): 10 fold
- nerve to muscle contrast (sciatic nerves [6]; living mice, after wash-out): little significant nerve-to muscle contrast

Compound: CC(=O)N[C@@H](CO)C(=O)N[C@@H](Cc1c[nH]cn1)C(=O)N[C@@H](CO)C(=O)N[C@@H](CC(N)=O)C(=O)N[C@H](C(=O)N[C@@H](CCC(N)=O)C(=O)N[C@H](C(=O)N[C@@H](CC(C)C)C(=O)N[C@@H](C)C(=O)N[C@@H](CCCCN)C(=O)N[C@@H](C)C(=O)N1CCC[C@H]1C(=O)N[C@@H](CCC(=O)O)C(=O)N[C@@H](Cc1c[nH]cn1)C(=O)N[C@H](C(=O)NCC(=O)N[C@@H](CCCCNC(=O)c1ccc2c(c1)C(=O)OC21c2ccc(O)cc2Oc2cc(O)ccc21)C(N)=O)[C@@H](C)O)[C@@H](C)O)[C@@H](C)O [SEQ ID NO:25, acetyl-SHSNTQTLAKAPEHTGK(5,6FAM)-amide] (Ac-SHSNTQTLAKAPEHTGK(5FAM)-NH2)
- binding to human nerves as compared to adjacent muscle ([8]; 50 μM for 15 minutes): Selective binding
- pattern of nerve binding in human tissue ([8]; tissue sections): connective tissue surrounding the nerve, i.e. epineurium, perineurium, and endoneurium
- native peptide detectable in urine of intravenously injected mice ([3]; LC-MS): none
- only fluorescently labeled entity identified in urine ([3]; MALDI): lysine-FAM
- nerve labeling compared to contralateral control nerve (sciatic nerve [4]; 1 day after crush injury): intact
- decrease of nerve labeling compared to contralateral control nerve (sciatic nerve [4]; 3 days after crush injury): 40%
- nerve labeling compared to contralateral control nerve (sciatic nerve [4]; 7 days after crush injury): returned to control levels
- nerve fluorescence compared to contralateral control side (sciatic nerve [4]; immediately following nerve devascularization): highly diminished
- time at which useful contrast between nerve and surrounding muscle begins to develop ([9]; after intravenous injection): 2 to 3 h
- nerve to muscle contrast ratio ([9]; by 4-5 hours post-injection): 8-10 fold
- visible contrast between nerve and muscle ([9]; by 24 hrs post-injection): all visible contrast between nerve and muscle had disappeared
- time of highest muscle fluorescence ([9]; mouse, in vivo, iv): highest immediately following intravenous administration
- time of peak nerve fluorescence post-administration ([9]; mouse, in vivo, iv): around 10 minutes
- generalized activity, behavior and weight gain versus uninjected/control mice [5]: did not have any apparent changes
- Nerve contrast (sciatic nerves [6]; derivatives of peptide SEQ ID NO: 4): High
- systemic survey of nerves labeled (sciatic nerves [7]; facial nerve, brachial plexus, sciatic nerve): all nerves were brightly labeled
